Measurements as given in patent publication US11141422B2, “Methods for treating pulmonary hypertension” (Chiesi Farmaceutici S.p.A., priority 2011, dated 2021).
“Also recorded” adds a separate entry of the source.

Key:
[1] = tested on: anaesthetized, mechanically ventilated pigs in normoxia; assay: Response to ADP infusion during normoxia: haemodynamic measurements in pigs (Protocol 3); assay type: in vivo
Procedure: (§1) Haemodynamic measurements were performed in six anaesthetized, mechanically ventilated pigs (30.2±0.7 kg) in normoxia (FiO2˜0.21) and hypoxia (FiO2˜0.10) prior to and during right atrial cangrelor infusion at a loading dose of 30 μg/kg/min for 10 min, and then a continuous infusion at 4 μg/kg/min for 80 min. Another six pigs (29.3±0.5 kg) were investigated in normoxia before and during right atrial infusion of ADP at 70 μg/kg/min for ˜7 min; as well as before and during simultaneous ADP and cangrelor infusion for ˜7 min at doses of 70 μg/kg/min and 4 μg/kg/min, respectively, after a cangrelor loading dose of 30 μg/kg/min for 10 min. All data are mean±SEM.
Protocol 3—Response to ADP During Normoxia.
ADP infusion during normoxia increased MPAP, temporarily to peak at 35.2±1.9 mmHg, 19.3±1.6 mmHg higher (p<0.001) than baseline, to then stabilize at a level 10.4±1.6 mmHg higher (p<0.001) than baseline, and 8.9±1.4 mmHg lower (p<0.001) than the peak, after ˜4-7 min. Also, after ˜4-7 min from initiation of ADP infusion, PVR had increased (p<0.002) by 2.8±0.4 WU and PCWP by 2.5±0.7 mmHg (p<0.019), compared to baseline. ADP infusion during normoxia decreased MAP, first to reach a nadir at 39.8±6.1 mmHg, 48.5±6.0 mmHg lower (p<0.001) than baseline, however, then stabilizing, after ˜4-7 min, at a level not different (p=ns) from, although slightly lower than, baseline, and 41.7±8.9 mmHg higher (p<0.001) than the nadir. MRAP, SVR, CO, HR, SV and blood-O2-consumption were unchanged (p=ns) by ADP infusion during normoxia.

[2] = cited from earlier work
[3] = tested on: anaesthetized, mechanically ventilated pigs in normoxia; assay: Cangrelor infusion alone during normoxia: haemodynamic measurements in pigs; assay type: in vivo; details: p=ns
Procedure: as §1
(§2) The ˜4-7 min MAP measurement after simultaneous ADP and cangrelor infusion was, however, not different (p=ns) from the measurement with ADP infusion alone. Also, SVR decreased (p<0.024) by 3.2±1.2 WU, as compared to baseline, in response to simultaneous ADP and cangrelor infusion. […] Furthermore, the ˜4-7 min PVR and PCWP measurements after simultaneous ADP and cangrelor infusion were lower (p<0.005 and p<0.022, respectively) than the measurements with ADP infusion alone. Also, the ˜4-7 min SV measurement after simultaneous ADP and cangrelor infusion was higher (p<0.02) than the measurement with ADP infusion alone.

dog thrombosis model = details: compared with placebo; animals receiving tissue-type plasminogen activator and heparin after thrombus formation; cited from earlier work
[4] = tested on: anaesthetized, mechanically ventilated pigs in normoxia (ADP-induced pulmonary vasoconstriction); assay: Response to simultaneous ADP and cangrelor infusion during normoxia: haemodynamic measurements in pigs (Protocol 4); assay type: in vivo
Procedure: as §1
Protocol 4—Response to Simultaneous ADP and Cangrelor Infusion.
as §2

[5] = tested on: anaesthetized, mechanically ventilated pigs in hypoxia (hypoxic pulmonary vasoconstriction); assay: Response to cangrelor during hypoxia: haemodynamic measurements in pigs (Protocol 2); assay type: in vivo; details: for MPAP decrease compared to hypoxia baseline: hypoxia (FiO2˜0.10), mean±SEM
Procedure: as §1
Protocol 2—Response to Cangrelor During Hypoxia.
Compared to hypoxia baseline, MPAP decreased transiently by 3.3±0.4 (p<0.036) and 3.6±0.6 mmHg (p<0.018), respectively, 10 and 30 min after initiation of cangrelor infusion; but returned to levels not different (p=ns) from baseline 60 and 90 min after initiation of cangrelor infusion. PVR, MRAP, PCWP, MAP, SVR, CO, HR, SV and blood-O2-consumption were unaltered by cangrelor infusion during hypoxia (p=ns).

[6] = ˜4-7 min from initiation of ADP infusion
[7] = simultaneous ADP and cangrelor infusion, normoxia
[8] = simultaneous ADP and cangrelor infusion, after ˜4-7 min
[9] = simultaneous ADP and cangrelor infusion, p=ns
[10] = during hypoxia, p=ns, listed as Cangrelor

Q: Which MAP nadir ([1]; ADP infusion) does the source give for `Nc1ncnc2c1ncn2[C@@H]1O[C@H](COP(=O)(O)OP(=O)(O)O)[C@@H](O)[C@H]1O` [ADP, adenosine diphosphate] here?
A: Its MAP nadir is 39.8±6.1 mmHg.

Q: And the “MAP nadir, lower than baseline” value ([1]; ADP infusion)?
A: Its value is 48.5±6.0 mmHg.

Q: And the “MPAP peak, higher than baseline” value ([1]; ADP infusion 70 μg/kg/min)?
A: Its value is 19.3±1.6 mmHg.

Q: And the MPAP peak ([1]; ADP infusion 70 μg/kg/min, mean±SEM)?
A: The MPAP peak was 35.2±1.9 mmHg.

Q: What about the “MAP stabilized level, higher than the nadir” value ([1]; ADP infusion, after ˜4-7 min) of the same compound?
A: Its value is 41.7±8.9 mmHg.

Q: What about the “MPAP stabilized level, higher than baseline” value ([1]; ADP infusion, after ˜4-7 min) of the same compound?
A: Its value is 10.4±1.6 mmHg.

Q: And the “MPAP stabilized level, lower than the peak” value ([1]; ADP infusion, after ˜4-7 min)?
A: Its value is 8.9±1.4 mmHg.

Q: And the “MAP stabilized level compared to baseline” value ([1]; ADP infusion, after ˜4-7 min, p=ns)?
A: Its value is “not different”.

Q: What about the “CO change by ADP infusion” value ([1]; p=ns) of the same compound?
A: The value was “unchanged; also recorded: tended to decrease”.

Q: And the “HR change by ADP infusion” value ([1]; p=ns)?
A: The value was “unchanged”.

Q: And the “MRAP change by ADP infusion” value ([1]; p=ns)?
A: The value was “unchanged; also recorded: tended to increase”.

Q: And the “SV change by ADP infusion” value ([1]; p=ns)?
A: Its value is “unchanged; also recorded: tended to decrease”.

Q: What about the “SVR change by ADP infusion” value ([1]; p=ns) of the same compound?
A: The value was “unchanged”.

Q: And the “blood-O2-consumption change by ADP infusion” value ([1]; p=ns)?
A: The value was “unchanged; also recorded: tended to decrease”.

Q: And the “PCWP increase compared to baseline” value [1, 6]?
A: The value was 2.5±0.7 mmHg.

Q: And the “PVR increase compared to baseline” value [1, 6]?
A: Its value is 2.8±0.4 WU.

Q: For `CSCCNc1nc(SCCC(F)(F)F)nc2c1ncn2[C@@H]1O[C@H](COP(=O)(O)OP(=O)(O)C(Cl)(Cl)P(=O)(O)O)[C@@H](O)[C@H]1O` [cangrelor], which “time to steady state concentrations in plasma from start of infusion” value ([2]; bolus 30 μg/kg and infusion 4 μg/kg/min) is on record?
A: Its value is no more than 30 min.

Q: What about the “half-life (clearance from plasma)” value ([2]; plasma) of the same compound?
A: The value was 3 to 6 min.

Q: What about the “any of the haemodynamic variables” value [3] of the same compound?
A: Its value is “did not alter”.

Q: And the cyclic flow variation (dog thrombosis model)?
A: The cyclic flow variation was “decreased”.

Q: And the myocardial flow (dog thrombosis model)?
A: The myocardial flow was “improved”.

Q: What about the reocclusion (dog thrombosis model) of the same compound?
A: Its reocclusion is “decreased”.

Q: And the “attenuation of the MPAP peak induced by ADP infusion” value ([4]; normoxia)?
A: The value was 34%.

Q: What about the “sustained MPAP increase induced by ADP infusion” value ([4]; normoxia) of the same compound?
A: Its value is “totally prevented”.

Q: What about the “sustained PVR increase induced by ADP infusion” value ([4]; normoxia) of the same compound?
A: Its value is “totally prevented”.

Q: And the “MPAP transient increase compared to baseline (peak)” value ([4]; normoxia, simultaneous ADP 70 μg/kg/min and cangrelor 4 μg/kg/min after cangrelor loading dose 30 μg/kg/min for 10 min)?
A: The value was 7.3±1.8 mmHg.

Q: What about the “MPAP peak as share of the peak ADP response without cangrelor” value ([4]; normoxia, simultaneous ADP and cangrelor infusion) of the same compound?
A: Its value is roughly 66%.

Q: And the “SVR decrease compared to baseline” value ([4]; simultaneous ADP and cangrelor infusion)?
A: The value was 3.2±1.2 WU.

Q: And the MAP nadir [4, 7]?
A: Its MAP nadir is 64.9±3.4 mmHg.

Q: What about the “MAP transient decrease compared to baseline” value [4, 7] of the same compound?
A: The value was 19.4±3.1 mmHg.

Q: And the “MAP stabilized level, higher than the nadir” value [4, 8]?
A: The value was 12.9±2.2 mmHg.

Q: And the “MAP stabilized level, lower than baseline” value [4, 8]?
A: Its value is 6.5±1.2 mmHg.

Q: And the “MPAP level, lower than the peak” value [4, 8]?
A: The value was 7.4±1.5 mmHg.

Q: What about the “MPAP compared to baseline” value ([4]; simultaneous ADP and cangrelor infusion, after ˜4-7 min, p=ns) of the same compound?
A: Its value is “not different”.

Q: And the “˜4-7 min MPAP measurement compared to ADP infusion alone” value ([4]; simultaneous ADP and cangrelor infusion, p<0.002)?
A: Its value is “significantly lower”.

Q: What about the “˜4-7 min PVR measurement compared to ADP infusion alone” value ([4]; simultaneous ADP and cangrelor infusion, p<0.005) of the same compound?
A: The value was “lower”.

Q: And the “˜4-7 min SV measurement compared to ADP infusion alone” value ([4]; simultaneous ADP and cangrelor infusion, p<0.02)?
A: The value was “higher”.

Q: And the “˜4-7 min PCWP measurement compared to ADP infusion alone” value ([4]; simultaneous ADP and cangrelor infusion, p<0.022)?
A: The value was “lower”.

Q: And the “MAP nadir compared to the nadir response to ADP alone” value ([4]; simultaneous ADP and cangrelor infusion, p<0.027)?
A: The value was “significantly higher”.

Q: What about the “CO change compared to baseline” value [4, 9] of the same compound?
A: Its value is “unchanged”.

Q: And the “HR change compared to baseline” value [4, 9]?
A: The value was “unchanged”.

Q: What about the “MRAP change compared to baseline” value [4, 9] of the same compound?
A: The value was “unchanged”.

Q: And the “PCWP change compared to baseline” value [4, 9]?
A: The value was “unchanged”.

Q: And the “PVR change compared to baseline” value [4, 9]?
A: The value was “unchanged”.

Q: And the “SV change compared to baseline” value [4, 9]?
A: Its value is “unchanged”.

Q: And the “blood-O2-consumption change compared to baseline” value [4, 9]?
A: The value was “unchanged; also recorded: tended to decrease”.

Q: And the “˜4-7 min CO measurement compared to ADP infusion alone” value [4, 9]?
A: Its value is “neither any differences”.

Q: And the “˜4-7 min HR measurement compared to ADP infusion alone” value [4, 9]?
A: The value was “neither any differences”.

Q: And the “˜4-7 min MAP measurement compared to ADP infusion alone” value [4, 9]?
A: Its value is “not different”.

Q: What about the “˜4-7 min SVR measurement compared to ADP infusion alone” value [4, 9] of the same compound?
A: The value was “did not differ”.

Q: And the “MAP decrease to ADP” value ([4]; with cangrelor)?
A: Its value is “attenuated”.

Q: And the “PCWP increase with ADP infusion alone” value ([4]; with cangrelor)?
A: The value was “attenuated”.

Q: And the “trend for a SV decrease with ADP infusion alone” value ([4]; with cangrelor)?
A: Its value is “attenuated”.

Q: What about the “CO change by cangrelor infusion” value ([5]; during hypoxia, p=ns) of the same compound?
A: The value was “unaltered”.

Q: What about the “HR change by cangrelor infusion” value ([5]; during hypoxia, p=ns) of the same compound?
A: The value was “unaltered”.

Q: And the “MAP change by cangrelor infusion” value ([5]; during hypoxia, p=ns)?
A: Its value is “unaltered”.

Q: What about the “MRAP change by cangrelor infusion” value ([5]; during hypoxia, p=ns) of the same compound?
A: The value was “unaltered”.

Q: What about the “PCWP change by cangrelor infusion” value ([5]; during hypoxia, p=ns) of the same compound?
A: The value was “unaltered”.

Q: And the “PVR change by cangrelor infusion” value ([5]; during hypoxia, p=ns)?
A: The value was “unaltered”.

Q: What about the “SV change by cangrelor infusion” value ([5]; during hypoxia, p=ns) of the same compound?
A: Its value is “unaltered”.

Q: What about the “SVR change by cangrelor infusion” value ([5]; during hypoxia, p=ns) of the same compound?
A: The value was “unaltered”.

Q: And the “blood-O2-consumption change by cangrelor infusion” value ([5]; during hypoxia, p=ns)?
A: Its value is “unaltered”.

Q: And the “MAP change by cangrelor infusion” value [5, 10]?
A: The value was “without affecting”.

Q: And the “SVR change by cangrelor infusion” value [5, 10]?
A: The value was “without affecting”.

Q: And the “blood-O2-consumption change by cangrelor infusion” value [5, 10]?
A: The value was “without affecting”.

Q: What about the “MPAP decrease compared to hypoxia baseline” value ([5]; 10 min after initiation of cangrelor infusion (30 μg/kg/min for 10 min, then 4 μg/kg/min)) of the same compound?
A: Its value is 3.3±0.4 mmHg.

Q: What about the “MPAP decrease compared to hypoxia baseline” value ([5]; 30 min after initiation of cangrelor infusion) of the same compound?
A: Its value is 3.6±0.6 mmHg.

Q: And the “MPAP compared to hypoxia baseline” value ([5]; hypoxia, 60 and 90 min after initiation of cangrelor infusion, p=ns)?
A: The value was “not different”.

Q: And the “MPAP decrease (attenuation of acute HPV)” value ([5]; hypoxia, 10 min after cangrelor infusion was initiated)?
A: Its value is roughly 12%.

Q: And the “MPAP decrease (attenuation of acute HPV)” value ([5]; hypoxia, 30 min after cangrelor infusion was initiated)?
A: Its value is roughly 14%.

Q: What does the source list for `CCCSc1nc(N[C@@H]2C[C@H]2c2ccc(F)c(F)c2)c2nnn([C@@H]3C[C@H](OCCO)[C@@H](O)[C@H]3O)c2n1` [ticagrelor]?
A: cyclic flow variation (dog thrombosis model): decreased; myocardial flow (dog thrombosis model): improved; reocclusion (dog thrombosis model): decreased
